# Experiments:
# Type in all cases: cell-based, human
# [1] = test system: HCT116 colectal cancer cell; assay: MTT anti-proliferative assay, HCT116; conditions: for IC50: MTT, 48 h, read-out: IC50 HCT-116
# Experimental: (§1) The anti-proliferation activities of the synthesized analogs were assessed by an in vitro MTT assay conducted on thirteen human cell lines. Their cytotoxic activities were evaluated by measuring the inhibition of net cell growth. […]
# (§2) 1.6. Cell lines and cell culture
# (§3) MTT was purchased from Sigma-Aldrich Co. (St. Louis, MO, USA). The PI and Annexin V-FITC apoptosis detection kit were purchased from Invitrogen (Eugene, OR, USA). All human cell lines were used in this study. […]
# (§4) cell, MCF-7 breast cancer cell, MCF-10A normal breast cell, Raji B lymphoblastoid cell and diffuse large B-cell lymphoma SU-DHL-10 cell were initially purchased from American Type Culture Collection (ATCC, Manassas, Virginia). media, DMEM, and FBS were provided from Gibco Company.
# (§5) 1.7. Cell growth inhibition assay (MTT assay)
# (§6) The experiment was carried out according to the method of reference. Briefly, cells were plated in 96-well plates at a den- […]
# (§7) the anti-proliferative activities were determined by MTT assay. […]
# (§8) (Becton-Dickinson, Franklin Lakes, NJ). […]
# [2] = test system: diffuse large B-cell lymphoma SU-DHL-10 cell; assay: MTT anti-proliferative assay, SU-DHL-10; conditions: for IC50: MTT, 48 h, read-out: IC50 SU-DHL-10
# Experimental: as §1, §2, §3, §4, §5, §6, §7, §8
# [3] = test system: MGC-803 late stage differentiation gastric cancer cell; assay: MTT anti-proliferative assay, MGC-803; conditions: for IC50: MTT, 48 h
# Experimental: as §1, §2, §3, §4, §5, §6, §7, §8
# AGS gastric cancer cell = assay: MTT anti-proliferative assay, AGS; conditions: for IC50: MTT, 48 h
# Experimental: as §1, §2, §3, §4, §5, §6, §7, §8
# [4] = test system: BEL-7402 liver cancer cell; assay: MTT anti-proliferative assay, BEL-7402; conditions: for IC50: MTT, 48 h
# Experimental: as §1, §2, §3, §4, §5, §6, §7, §8
# [5] = test system: HeLa cervical cancer cell; assay: MTT anti-proliferative assay, HeLa; conditions: for IC50: MTT, 48 h
# Experimental: as §1, §2, §3, §4, §5, §6, §7, §8
# HepG2 hepatoma cell = assay: MTT anti-proliferative assay, HepG2; conditions: for IC50: MTT, 48 h, read-out: IC50 HepG-2
# Experimental: as §1, §2, §3, §4, §5, §6, §7, §8
# MCF-7 breast cancer cell = assay: MTT anti-proliferative assay, MCF-7; conditions: for IC50: MTT, 48 h
# Experimental: as §1, §2, §3, §4, §5, §6, §7, §8
# A549 lung cancer cell = assay: MTT anti-proliferative assay, A549; conditions: for IC50: MTT, 48 h
# Experimental: as §1, §2, §3, §4, §5, §6, §7, §8
# [6] = test system: SGC-7901 early differentiation gastric cancer cell; assay: MTT anti-proliferative assay, SGC-7901; conditions: for IC50: MTT, 48 h
# Experimental: as §1, §2, §3, §4, §5, §6, §7, §8
# [7] = test system: Raji B lymphoblastoid cell; assay: MTT anti-proliferative assay, Raji; conditions: for IC50: MTT, 48 h, read-out: IC50 Raji
# Experimental: as §1, §2, §3, §4, §5, §6, §7, §8
# [8] = test system: MCF-10A normal breast cell; assay: MTT assay, MCF-10A normal cells; conditions: 48 h
# Experimental: as §1, §2, §3, §4, §5, §6, §7, §8
# L-02 normal liver cell = assay: MTT assay, L-02 normal cells; conditions: 48 h
# Experimental: as §1, §2, §3, §4, §5, §6, §7, §8
Compound,IC50 [1] [µM],IC50 [2] [µM],IC50 [3] [µM],IC50 (AGS gastric cancer cell) [µM],IC50 [4] [µM],IC50 [5] [µM],IC50 (HepG2 hepatoma cell) [µM],IC50 (MCF-7 breast cancer cell) [µM],IC50 (A549 lung cancer cell) [µM],IC50 [6] [µM],IC50 [7] [µM],IC50 [8] [µM],IC50 (L-02 normal liver cell) [µM],"SI (selectivity index), IC50 (L-02)/IC50 (HCT-116) [1]","SI (selectivity index), IC50 (L-02)/IC50 (AGS) (AGS gastric cancer cell)","SI (selectivity index), IC50 (L-02)/IC50 (Raji) [7]",other results
N#C/C(=C\c1ccccc1)c1ccc(OC(F)(F)F)cc1 [Compound 1a2a],> 100,> 100,> 100,> 100,> 100,> 100,> 100,> 100,> 100,> 100,> 100,> 100,> 100,–,–,–,–
N#C/C(=C\c1ccc(F)cc1)c1ccc(OC(F)(F)F)cc1 [Compound 1a2b],23.5 ± 4.6,38.8 ± 3.7,37.4 ± 5.8,13.2 ± 3.3,15 ± 2.7,–,> 100,> 100,> 100,> 100,49 ± 7.4,> 100,> 100,–,–,–,–
N#C/C(=C\c1ccc(Cl)cc1)c1ccc(OC(F)(F)F)cc1 [Compound 1a2c],20.2 ± 1.7,> 100,35.2 ± 2.8,18.6 ± 3,> 100,72.3 ± 2.4,20.7 ± 1.4,55.2 ± 2.8,65.8 ± 8.9,56.4 ± 9.7,55.1 ± 3.2,> 100,> 100,> 4.9,> 5.3,> 1.8,"SI (selectivity index), IC50 (L-02)/IC50 (MGC-803) [3]: > 2.8; SI (selectivity index), IC50 (L-02)/IC50 (HeLa) [5]: > 1.3; SI (selectivity index), IC50 (L-02)/IC50 (HepG-2) (HepG2 hepatoma cell): > 4.8; SI (selectivity index), IC50 (MCF-10A)/IC50 (MCF-7) (MCF-7 breast cancer cell): > 1.8; SI (selectivity index), IC50 (L-02)/IC50 (A549) (A549 lung cancer cell): > 1.5; SI (selectivity index), IC50 (L-02)/IC50 (SGC-7901) [6]: > 1.7"
N#C/C(=C\c1ccc(Br)cc1)c1ccc(OC(F)(F)F)cc1 [Compound 1a2d],25.4 ± 6.8,73.5 ± 17.3,> 100,19.6 ± 2.9,> 100,87.3 ± 4.1,24.3 ± 3.4,> 100,> 100,> 100,64.9 ± 1.5,> 100,> 100,> 3.9,> 5.0,> 1.5,"SI (selectivity index), IC50 (L-02)/IC50 (SU-DHL-10) [2]: > 1.3; SI (selectivity index), IC50 (L-02)/IC50 (HeLa) [5]: > 1.1; SI (selectivity index), IC50 (L-02)/IC50 (HepG-2) (HepG2 hepatoma cell): > 4.1"
Cc1ccc(/C=C(\C#N)c2ccc(OC(F)(F)F)cc2)cc1 [Compound 1a2e],> 100,> 100,> 100,30.8 ± 7.9,> 100,> 100,> 100,> 100,> 100,> 100,> 100,> 100,> 100,–,> 3.2,–,–
CCc1ccc(/C=C(\C#N)c2ccc(OC(F)(F)F)cc2)cc1 [Compound 1a2f],43.5 ± 3.8,15.1 ± 11.6,56.7 ± 11,14.6 ± 5.9,> 100,> 100,> 100,59.9 ± 2.3,> 100,77.9 ± 12.6,42.7 ± 3.4,> 100,> 100,> 2.2,> 6.8,> 2.3,"SI (selectivity index), IC50 (L-02)/IC50 (SU-DHL-10) [2]: > 6.6; SI (selectivity index), IC50 (L-02)/IC50 (MGC-803) [3]: > 1.7; SI (selectivity index), IC50 (MCF-10A)/IC50 (MCF-7) (MCF-7 breast cancer cell): > 1.6; SI (selectivity index), IC50 (L-02)/IC50 (SGC-7901) [6]: > 1.2"
CC(C)c1ccc(/C=C(\C#N)c2ccc(OC(F)(F)F)cc2)cc1 [Compound 1a2g],57.4 ± 7.8,27.3 ± 5.3,> 100,8.7 ± 2.1,> 100,> 100,> 100,> 100,71.6 ± 24.7,89.9 ± 5.6,66.6 ± 13.3,> 100,> 100,> 1.7,> 11.4,> 1.5,"SI (selectivity index), IC50 (L-02)/IC50 (SU-DHL-10) [2]: > 3.6; SI (selectivity index), IC50 (L-02)/IC50 (A549) (A549 lung cancer cell): > 1.3; SI (selectivity index), IC50 (L-02)/IC50 (SGC-7901) [6]: > 1.1"
CN(C)c1ccc(/C=C(\C#N)c2ccc(OC(F)(F)F)cc2)cc1 [Compound 1a2h],8.7 ± 1.7,> 100,16.8 ± 0.7,69.6 ± 15.7,24.1 ± 2.8,> 100,> 100,> 100,> 100,19.7 ± 1.5,67.4 ± 31.7,> 100,> 100,> 11.4,> 1.4,> 1.4,"SI (selectivity index), IC50 (L-02)/IC50 (MGC-803) [3]: > 5.9; SI (selectivity index), IC50 (L-02)/IC50 (BEL-7402) [4]: > 4.1; SI (selectivity index), IC50 (L-02)/IC50 (SGC-7901) [6]: > 5.0"
CCN(CC)c1ccc(/C=C(\C#N)c2ccc(OC(F)(F)F)cc2)cc1 [Compound 1a2i],> 100,> 100,> 100,> 100,> 100,> 100,> 100,> 100,> 100,> 100,45.1 ± 15.6,> 100,> 100,–,–,> 2.2,–
COc1ccc(/C=C(\C#N)c2ccc(OC(F)(F)F)cc2)cc1 [Compound 1a2j],42.5 ± 12.3,> 100,> 100,21.1 ± 5.2,> 100,> 100,72.6 ± 25.3,> 100,> 100,> 100,> 100,94.1 ± 3.5,> 100,> 2.3,> 4.7,–,"SI (selectivity index), IC50 (L-02)/IC50 (HepG-2) (HepG2 hepatoma cell): > 1.3"
COc1cccc(/C=C(\C#N)c2ccc(OC(F)(F)F)cc2)c1 [Compound 1a2k],> 100,> 100,> 100,> 100,> 100,> 100,> 100,> 100,> 100,> 100,> 100,> 100,> 100,–,–,–,–
COc1cc(/C=C(\C#N)c2ccc(OC(F)(F)F)cc2)cc(OC)c1OC [Compound 1a2l],> 100,> 100,> 100,> 100,> 100,> 100,> 100,> 100,> 100,> 100,> 100,> 100,> 100,–,–,–,–
CCCOc1ccc(/C=C(\C#N)c2ccc(OC(F)(F)F)cc2)cc1 [Compound 1a2m],> 100,> 100,> 100,87.2 ± 5.9,> 100,> 100,> 100,> 100,> 100,> 100,> 100,> 100,> 100,–,> 1.4,–,–
CCCCOc1ccc(/C=C(\C#N)c2ccc(OC(F)(F)F)cc2)cc1 [Compound 1a2n],> 100,> 100,> 100,> 100,> 100,> 100,> 100,> 100,> 100,> 100,> 100,> 100,> 100,–,–,–,–
CCCCCOc1ccc(/C=C(\C#N)c2ccc(OC(F)(F)F)cc2)cc1 [Compound 1a2o],> 100,> 100,> 100,> 100,> 100,> 100,> 100,> 100,> 100,> 100,> 100,> 100,> 100,–,–,–,–
CCCCCCOc1ccc(/C=C(\C#N)c2ccc(OC(F)(F)F)cc2)cc1 [Compound 1a2p],> 100,> 100,> 100,> 100,> 100,> 100,> 100,> 100,> 100,> 100,> 100,> 100,> 100,–,–,–,–

# From article PMC11071649, “Synthesis and Selective Anticancer Activity Evaluation of 2-phenylacrylonitrile Derivatives as Tubulin Inhibitors” (Current Medicinal Chemistry, 2024)
